Reference: patent US11802120B2, “Fused cyclic urea derivatives as CRHR2 antagonist” (RaQualia Pharma Inc., priority 2018, dated 2023)

Target: T1, human CRHR2-alpha (Homo sapiens, UniProt Q13324)
T1 sequence (Q13324 1-411): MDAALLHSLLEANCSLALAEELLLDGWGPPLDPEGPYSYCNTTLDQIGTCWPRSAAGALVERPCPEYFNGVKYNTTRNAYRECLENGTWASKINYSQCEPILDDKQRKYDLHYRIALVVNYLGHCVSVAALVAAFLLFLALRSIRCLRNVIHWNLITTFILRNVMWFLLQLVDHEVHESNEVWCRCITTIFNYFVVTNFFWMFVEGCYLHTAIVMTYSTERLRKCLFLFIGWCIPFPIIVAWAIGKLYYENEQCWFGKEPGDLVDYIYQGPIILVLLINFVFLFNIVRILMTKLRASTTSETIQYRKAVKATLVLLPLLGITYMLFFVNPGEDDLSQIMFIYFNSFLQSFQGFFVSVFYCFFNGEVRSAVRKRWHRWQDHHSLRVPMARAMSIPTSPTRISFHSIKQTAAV
Experiment: cAMP functional assay for human CRHR2 (LANCE Ultra cAMP, TR-FRET)
Format: cell-based
Details: CHO-K1 cells expressing human CRHR2-alpha, agonist human urocortin2 at EC80, cAMP; read-out: IC50 against CRHR2
Summary of the method: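 CHO-K1 stable lines; 4,000 cells/well; compound 30 min, 25° C; EC80 agonist (human urocortin2 → CRHR2, CRF → CRHR1) 30 min, 25° C; buffer HBSS/0.1% BSA/0.5 mM IBMX/5 mM Hepes pH 7.4; Eu-cAMP tracer + ULight antibody 60 min; TR-FRET read; IC50 from % inhibition curves.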

Row | SMILES | IC50 [nM]
1 | O=C(N[C@H]1CC[C@H](Cn2c(=O)n(-c3ccc(-n4nccn4)cc3)c3ccccc32)CC1)c1cc(Cl)cnc1C(F)F [Example 684, N-((1r,4r)-4-((3-(4-(2H-1,2,3-triazol-2-yl)phenyl)-2-oxo-2,3-dihydro-1H-benzo[d]imidazol-1-yl)methyl)cyclo-hexyl)-5-chloro-2-(difluoro-methyl)nicotinamide] | < 300
2 | O=C(N[C@H]1CC[C@H](Cn2c(=O)n(-c3ccc(-n4nccn4)nc3)c3ccccc32)CC1)c1cc(Cl)cnc1C(F)F [Example 685, N-((1r,4r)-4-((3-(6-(2H-1,2,3-triazol-2-yl)pyridin-3-yl)-2-oxo-2,3-dihydro-1H-benzo[d]imidazol-1-yl)methyl)cyclohexyl)-5-chloro-2-(difluoromethyl) nicotinamide] | < 300
3 | O=C(N[C@H]1CC[C@H](Cn2c(=O)n(-c3ccnc(N4CCOCC4)c3)c3ccccc32)CC1)c1cc(Cl)cnc1C(F)F [Example 686, 5-chloro-2-(difluoromethyl)-N-((1r,4r)-4-((3-(2-morpho-linopyridin-4-yl)-2-oxo-2,3-dihydro-1H-benzo[d]imidazol-1-yl)methyl)cyclohexyl) nicotinamide] | < 300
4 | O=C(N[C@H]1CC[C@H](Cn2c(=O)n(-c3ccnc(-c4cnco4)c3)c3ccccc32)CC1)c1cc(Cl)cnc1C(F)F [Example 687, 5-chloro-2-(difluoromethyl)-N-((1r,4r)-4-((3-(2-(oxazol-5-yl)pyridin-4-yl)-2-oxo-2,3-dihydro-1H-benzo[d]imidazol-1-yl)methyl)cyclohexyl) nicotinamide] | < 300
5 | O=C(N[C@H]1CC[C@H](Cn2c(=O)n(-c3cncc(-c4ncco4)c3)c3ccccc32)CC1)c1cc(Cl)cnc1C(F)F [Example 688, 5-chloro-2-(difluoromethyl)-N-((1r,4r)-4-((3-(5-(oxazol-2-yl)pyridin-3-yl)-2-oxo-2,3-dihydro-1H-benzo[d]imidazol-1-yl)methyl)cyclohexyl) nicotinamide] | < 300
6 | Cc1ncc(Cl)cc1C(=O)N[C@H]1CC[C@H](Cn2c(=O)n(-c3ccnc(N4CCN(C)C4=O)c3)c3ccccc32)CC1 [Example 690, 5-chloro-2-methyl-N-((1r,4r)-4-((3-(2-(3-methyl-2-oxoimi-dazolidin-1-yl)pyridin-4-yl)-2-oxo-2,3-dihydro-1H-benzo [d]imidazol-1-yl)methyl)cyclo-hexyl)nicotinamide] | < 300
7 | O=C(N[C@H]1CC[C@H](Cn2c(=O)n(-c3ccnc(N4CCNC4=O)c3)c3ccccc32)CC1)c1cc(Cl)cnc1C(F)F [Example 691, 5-chloro-2-(difluoromethyl)-N-((1r,4r)-4-((2-oxo-3-(2-(2-oxoimidazolidin-1-yl)pyridin-4-yl)-2,3-dihydro-1H-benzo [d]imidazol-1-yl)methyl)cyclo-hexyl)nicotinamide] | < 300
8 | CNc1ccc(-n2c(=O)n(C[C@H]3CC[C@H](NC(=O)c4cc(Cl)cnc4C(F)(F)F)CC3)c3ccccc32)nc1 [Example 692, 5-chloro-N-((1r,4r)-4-((3-(5-(methylamino)pyridin-2-yl)-2-oxo-2,3-dihydro-1H-benzo[d]imidazol-1-yl)methyl)cyclohexyl)-2-(trifluoromethyl)nicotinamide] | < 300
9 | COc1ccc(Cl)c(-n2c(=O)n(C[C@H]3CC[C@H](NC(=O)c4cc(Cl)cnc4C(F)F)CC3)c3ccncc32)c1 [Example 693, 5-chloro-N-((1r,4r)-4-((3-(2-chloro-5-methoxyphenyl)-2-oxo-2,3-dihydro-1H-imidazo [4,5-c]pyridin-1-yl)methyl)cyclohexyl)-2-(difluoromethyl) nicotinamide] | < 300
10 | Cc1ncc(Cl)cc1C(=O)N[C@H]1CC[C@H](Cn2c(=O)n(-c3ccc(-c4ncc[nH]4)nc3)c3ccccc32)CC1 [Example 695, N-((1r,4r)-4-((3-(6-(1H-imidazol-2-yl)pyridin-3-yl)-2-oxo-2,3-dihydro-1H-benzo[d]imidazol-1-yl)methyl)cyclohexyl)-5-chloro-2-methylnicotinamide] | < 300
11 | Cc1ncc(Cl)cc1C(=O)N[C@H]1CC[C@H](Cn2c(=O)n(-c3cccc(-c4cn[nH]c4)c3)c3ccccc32)CC1 [Example 696, N-((1r,4r)-4-((3-(3-(1H-pyrazol-4-yl)phenyl)-2-oxo-2,3-dihydro-1H-benzo[d]imidazol-1-yl)methyl)cyclohexyl)-5-chloro-2-methylnicotinamide] | < 300

The remaining lines, values ahead:

Row | IC50 [nM] | SMILES
12 | < 300 | C[C@H](O)C(=O)Nc1ccc(-n2c(=O)n(C[C@H]3CC[C@H](NC(=O)c4cc(Cl)cnc4C(F)F)CC3)c3ccccc32)cn1 [Example 671, 5-chloro-2-(difluoromethyl)-N-((1S,4r)-4-((3-(6-((S)-2-hydroxypropanamido)pyridin-3-yl)-2-oxo-2,3-dihydro-1H-benzo[d]imidazol-1-yl)methyl)cyclohexyl)nicotinamide]
13 | < 300 | CNc1ccc(-n2c(=O)n(C[C@H]3CC[C@H](NC(=O)c4cc(Cl)cnc4C(F)F)CC3)c3c(F)cccc32)cn1 [Example 672, 5-chloro-2-(difluoromethyl)-N-((1r,4r)-4-((7-fluoro-3-(6-(methylamino)pyridin-3-yl)-2-oxo-2,3-dihydro-1H-benzo [d]imidazol-1-yl)methyl)cyclo-hexyl)nicotinamide]
14 | < 300 | Cc1cc2cc(-n3c(=O)n(C[C@H]4CC[C@H](NC(=O)c5cc(Cl)cnc5C(F)F)CC4)c4ccccc43)cnc2[nH]1 [Example 673, 5-chloro-2-(difluoromethyl)-N-((1r,4r)-4-((3-(2-methyl-1H-pyrrolo[2,3-b]pyridin-5-yl)-2-oxo-2,3-dihydro-1H-benzo[d]imidazol-1-yl)methyl)cyclohexyl)nicotinamide]
15 | < 300 | Cc1cc2cc(-n3c(=O)n(C[C@H]4CC[C@H](NC(=O)c5cc(Cl)cnc5C(F)F)CC4)c4ccccc43)cnc2n1C [Example 674, 5-chloro-2-(difluoromethyl)-N-((1r,4r)-4-((3-(1,2-dimethyl-1H-pyrrolo[2,3-b]pyridin-5-yl)-2-oxo-2,3-dihydro-1H-benzo[d]imidazol-1-yl)methyl)cyclohexyl)nicotinamide]
16 | < 300 | COc1ccc(Cl)c(-n2c(=O)n(C[C@H]3CC[C@H](NC(=O)c4cc(Cl)cnc4C(F)F)CC3)c3ncccc32)c1 [Example 675, 5-chloro-N-((1r,4r)-4-((1-(2-chloro-5-methoxyphenyl)-2-oxo-1H-imidazo[4,5-b]pyridin-3(2H)-yl)methyl)cyclohexyl)-2-(difluoro-methyl)nicotinamide]
17 | < 300 | O=C(N[C@H]1CC[C@H](Cn2c(=O)n(-c3cc(F)ccc3Cl)c3cccnc32)CC1)c1cc(Cl)cnc1C(F)F [Example 676, 5-chloro-N-((1r,4r)-4-((1-(2-chloro-5-fluorophenyl)-2-oxo-1H-imidazo[4,5-b]pyridin-3(2H)-yl)methyl)cyclohexyl)-2-(difluoro-methyl)nicotinamide]
18 | < 300 | Cc1ncc(Cl)cc1C(=O)N[C@H]1CC[C@H](Cn2c(=O)n(-c3cccc(-c4cnn(C)c4)c3)c3ccccc32)CC1 [Example 678, 5-chloro-2-methyl-N-((1r,4r)-4-((3-(3-(1-methyl-1H-pyrazol-4-yl)phenyl)-2-oxo-2,3-dihydro-1H-benzo[d]imidazol-1-yl)methyl)cyclohexyl)nicotinamide]
19 | < 300 | Cc1ncc(Cl)cc1C(=O)N[C@H]1CC[C@H](Cn2c(=O)n(-c3cncc(-c4cnn(C)c4)c3)c3ccccc32)CC1 [Example 679, 5-chloro-2-methyl-N-((1r,4r)-4-((3-(5-(1-methyl-1H-pyrazol-4-yl)pyridin-3-yl)-2-oxo-2,3-dihydro-1H-benzo[d]imidazol-1-yl)methyl)cyclohexyl) nicotinamide]
20 | < 300 | Cc1ncc(Cl)cc1C(=O)N[C@H]1CC[C@H](Cn2c(=O)n(-c3ccnc(-c4cnn(C)c4)c3)c3ccccc32)CC1 [Example 680, 5-chloro-2-methyl-N-((1r,4r)-4-((3-(2-(1-methyl-1H-pyrazol-4-yl)pyridin-4-yl)-2-oxo-2,3-dihydro-1H-benzo[d]imidazol-1-yl)methyl)cyclohexyl) nicotinamide]
21 | < 300 | Cn1cc(-c2cccc(-n3c(=O)n(C[C@H]4CC[C@H](NC(=O)c5cc(Cl)cnc5C(F)F)CC4)c4ccccc43)c2)cn1 [Example 681, 5-chloro-2-(difluoromethyl)-N-((1r,4r)-4-((3-(3-(1-methyl-1H-pyrazol-4-yl)phenyl)-2-oxo-2,3-dihydro-1H-benzo [d]imidazol-1-yl)methyl)cyclo-hexyl)nicotinamide]
22 | < 300 | Cn1cc(-c2cncc(-n3c(=O)n(C[C@H]4CC[C@H](NC(=O)c5cc(Cl)cnc5C(F)F)CC4)c4ccccc43)c2)cn1 [Example 682, 5-chloro-2-(difluoromethyl)-N-((1r,4r)-4-((3-(5-(1-methyl-1H-pyrazol-4-yl)pyridin-3-yl)-2-oxo-2,3-dihydro-1H-benzo[d]imidazol-1-yl)methyl)cyclohexyl)nicotinamide]
23 | < 300 | COc1cncc(-n2c(=O)n(C[C@H]3CC[C@H](NC(=O)c4cc(Cl)cnc4C(F)F)CC3)c3ccccc32)c1 [Example 683, 5-chloro-2-(difluoromethyl)-N-((1r,4r)-4-((3-(5-methoxy-pyridin-3-yl)-2-oxo-2,3-dihydro-1H-benzo[d]imidazol-1-yl)methyl)cyclohexyl) nicotinamide]
